IC50 data for 17 compounds are collected here from patent US11472791B2 (Incyte Corporation, priority 2019, dated 2022).

This assay has as its target CDK2/Cyclin E1 (Homo sapiens (Human), UniProt P24941). In words: CDK2/Cyclin E1 HTRF enzyme activity assay. It counts as biochemical. The conditions noted are these: 1 mM ATP. As to the method:
Assays are conducted in white 384-well polystyrene plates in a final reaction volume of 8 μL. […] HTRF signals are read after 1 hour at room temperature on a PHERAstar FS plate reader (BMG Labtech). Data is analyzed with IDBS XLFit and GraphPad Prism 5.0 software using a three or four parameter dose response curve to determine IC50 for each compound.
In general terms: TR-FRET usually uses a lanthanide donor and a delayed reading to cut background.
In general, IC50 refers to the concentration needed to halve the response being measured. As for `CS(=O)(=O)N1CCC(Nc2ncc(C#N)c(-c3cnn(-c4ccc(CN[C@H]5CCC[C@H](O)C5)cc4Cl)c3)n2)CC1` [Example 181, 4-(1-(2-Chloro-4-((((1S,3S)-3-hydroxycyclohexyl)amino)methyl)phenyl)-1H-pyrazol-4-yl)-2((1-(methylsulfonyl)piperidin-4-yl)amino)pyrimidine-5-carbonitrile], the IC50 was less than 50 nM.

In turn, `CCN1CCN(Cc2ccc(-n3cc(-c4nc(NC5CCN(S(=O)(=O)c6cn(C)cn6)CC5)ncc4Cl)cn3)c(C)n2)CC1` [Example 250, 5-Chloro-4-(1-(6-((4-ethylpiperazin-1-yl)methyl)-2-methylpyridin-3-yl)-1H-pyrazol-4-yl)-N-(1-((1-methyl-1H-imidazol-4-yl)sulfonyl)piperidin-4-yl)pyrimidin-2-amine] showed an IC50 of less than 50 nM.

Regarding `C[C@]1(O)CC[C@H](NCc2ccc(-n3cc(-c4nc(NC5CCN(S(=O)(=O)C6CC6)CC5)ncc4C#N)cn3)c(Cl)c2)CC1` [Example 284, 4-(1-(2-Chloro-4-((((1r,4r)-4-hydroxy-4-methylcyclohexyl)amino)methyl)phenyl)-1H-pyrazol-4-yl)-2-((1-(cyclopropylsulfonyl)piperidin-4-yl)amino)pyrimidine-5-carbonitrile], the IC50 was less than 50 nM.

The compound `CC(C)(O)Cn1cc(-c2nc(NC3CCN(S(=O)(=O)CCCN4CC(O)C4)CC3)ncc2C(F)(F)F)cn1` [Example 225, 1-(3-((4-((4-(1-(2-Hydroxy-2-methylpropyl)-1H-pyrazol-4-yl)-5-(trifluoromethyl)pyrimidin-2-yl)amino)piperidin-1-yl)sulfonyl)propyl)azetidin-3-ol] registered a concentration for half-maximal inhibition (IC50) of less than 50 nM.

For `CS(=O)(=O)N1CCC(Nc2ncc(C#N)c(-c3cnn(-c4ccc(CN[C@@H]5CCCOC5)cc4Cl)c3)n2)CC1` [Example 195, (R)-4-(1-(2-Chloro-4-(((tetrahydro-2H-pyran-3-yl)amino)methyl)phenyl)-1H-pyrazol-4-yl)-2-((1-(methylsulfonyl)piperidin-4-yl)amino)pyrimidine-5-carbonitrile], the IC50 was less than 50 nM.

Compound `CC(C)(NCc1ccc(-n2cc(-c3nc(NC4CCN(S(C)(=O)=O)CC4)ncc3C#N)cn2)c(Cl)c1)C(N)=O` [Example 160, 2-((3-Chloro-4-(4-(5-cyano-2-((1-(methylsulfonyl)piperidin-4-yl)amino)pyrimidin-4-yl)-1H-pyrazol-1-yl)benzyl)amino)-2-methylpropanamide] had an IC50 of less than 50 nM.

`Cc1nc(CN2CCN(C(C)C)CC2)ccc1-n1cc(-c2nc(NC3CCN(S(=O)(=O)c4cn(C)cn4)CC3)ncc2Cl)cn1` [Example 251, 5-Chloro-4-(1-(6-((4-isopropylpiperazin-1-yl)methyl)-2-methylpyridin-3-yl)-1H-pyrazol-4-yl)-N-(1-((1-methyl-1H-imidazol-4-yl)sulfonyl)piperidin-4-yl)pyrimidin-2-amine] had an IC50 of less than 50 nM.

`Cc1nc(CN2CCN(C)CC2)ccc1-n1cc(-c2nc(N[C@H]3CCN(S(=O)(=O)c4cn(C)cn4)C[C@H]3C)ncc2C(F)(F)F)cn1` [Example 255, N-((3R,4S)-3-methyl-1-((1-methyl-1H-imidazol-4-yl)sulfonyl)piperidin-4-yl)-4-(1-(2-methyl-6-((4-methylpiperazin-1-yl)methyl)pyridin-3-yl)-1H-pyrazol-4-yl)-5-(trifluoromethyl)pyrimidin-2-amine] yielded an IC50 of less than 50 nM.

In turn, `C[C@H]1COCCN1CCCS(=O)(=O)N1CCC(Nc2ncc(C(F)(F)F)c(-c3cnn(CC(C)(C)O)c3)n2)CC1` [Example 71, (S)-2-Methyl-1-(4-(2-((1-((3-(3-methylmorpholino)propyl)sulfonyl)piperidin-4-yl)amino)-5-(trifluoromethyl)pyrimidin-4-yl)-1H-pyrazol-1-yl)propan-2-ol] gave an IC50 of less than 50 nM.

`CS(=O)(=O)N1CCC(Nc2ncc(C#N)c(-c3cnn(-c4ccc(CN[C@H]5CC[C@](O)(C(F)(F)F)CC5)cc4Cl)c3)n2)CC1` [Example 177, 4-(1-(2-Chloro-4-((((1s,4s)-4-hydroxy-4-(trifluoromethyl)cyclohexyl)amino)methyl)phenyl)-1H-pyrazol-4-yl)-2-((1-(methylsulfonyl)piperidin-4-yl)amino)pyrimidine-5-carbonitrile]: the half-maximal inhibitory concentration (IC50) is less than 50 nM.

For the compound `CNCc1ccc(-n2cc(-c3nc(N[C@H]4CCN(S(=O)(=O)CCCC#N)C[C@H]4F)ncc3C#N)cn2)c(Cl)c1` [Example 122, 4-(1-(2-Chloro-4-((methylamino)methyl)phenyl)-1H-pyrazol-4-yl)-2-(((3R,4S)-1-((3-cyanopropyl)sulfonyl)-3-fluoropiperidin-4-yl)amino)pyrimidine-5-carbonitrile], the IC50 is less than 50 nM.

`CCS(=O)(=O)N1CCC(Nc2ncc(C#N)c(-c3cnn(-c4ccc(CN[C@H]5C[C@@](C)(O)C5)cc4Cl)c3)n2)CC1` [Example 192, 4-(1-(2-Chloro-4-((((1s,3s)-3-hydroxy-3-methylcyclobutyl)amino)methyl)phenyl)-1H-pyrazol-4-yl)-2-((1-(ethylsulfonyl)piperidin-4-yl)amino)pyrimidine-5-carbonitrile] gave an IC50 of less than 50 nM.

In turn, `Cc1cc(CN2CCOCC2)ccc1-n1cc(-c2nc(NC3CCN(S(=O)(=O)c4cn(C)cn4)CC3)ncc2C(F)(F)F)cn1` [Example 107, N-(1-((1-Methyl-1H-imidazol-4-yl)sulfonyl)piperidin-4-yl)-4-(1-(2-methyl-4-(morpholinomethyl)phenyl)-1H-pyrazol-4-yl)-5-(trifluoromethyl)pyrimidin-2-amine] showed an IC50 of less than 50 nM.

The compound `[2H]C([2H])([2H])NCc1ccc(-n2cc(-c3nc(NC4CCN(S(=O)(=O)C5CC5)CC4)ncc3C#N)cn2)c(Cl)c1` [Example 141, 4-(1-(2-Chloro-4-(((methyl-d3)amino)methyl)phenyl)-1H-pyrazol-4-yl)-2-((1-(cyclopropylsulfonyl)piperidin-4-yl)amino)pyrimidine-5-carbonitrile] had an IC50 of less than 50 nM.

The compound `CS(=O)(=O)N1CCC(Nc2ncc(C#N)c(-c3cnn(-c4ccc(CN[C@]5(C)C[C@H](O)C5)cc4Cl)c3)n2)CC1` [Example 158, 4-(1-(2-Chloro-4-((((1s,3s)-3-hydroxy-1-methylcyclobutyl)amino)methyl)phenyl)-1H-pyrazol-4-yl)-2-((1-(methylsulfonyl)piperidin-4-yl)amino)pyrimidine-5-carbonitrile] yielded an IC50 of less than 50 nM.

For the compound `CN1CCC(S(=O)(=O)N2CCC(Nc3ncc(C(F)(F)F)c(-c4cnn(CC(C)(C)O)c4)n3)CC2)C1` (racemic) [Example 86, (±)-2-Methyl-1-(4-(2-((1-((1-methylpyrrolidin-3-yl)sulfonyl)piperidin-4-yl)amino)-5-(trifluoromethyl)pyrimidin-4-yl)-1H-pyrazol-1-yl)propan-2-ol], the IC50 is less than 50 nM.

Compound `Cc1nn(C2CCN(C)CC2)cc1-c1nc(NC2CCN(S(C)(=O)=O)CC2)ncc1F` [Example 15, 5-Fluoro-4-(3-methyl-1-(1-methylpiperidin-4-yl)-1H-pyrazol-4-yl)-N-(1-(methylsulfonyl)piperidin-4-yl)pyrimidin-2-amine] yielded an IC50 of 50 to 200 nM.
